Source: patent publication US4535081A, “Antiallergic and antiulcer 1-oxo-1H-thiazolo[3,2-a]pyrimidine-2-carboxamides and intermediates therefor” (Pfizer Inc., priority 1983, dated 1985)

What was measured:
[1] = Oral absorption and plasma concentrations, dogs; assay type: in vivo, dog
Method: (§1) This is supported by the observations of plasma concentrations of 3 to 7 μg/ml one hour after oral administration of III, 50 to 300 mg/kg.

[2] = system: IgE (reaginic antiserum) PCA reaction; experiment: Oral activity in PCA test, IgE; assay type: in vivo, rat
Method: The antiallergy property of the compounds of this invention is evaluated by the passive cutaneous anaphylaxis (PCA) test (Ovary, J. Immun., 81, 355, 1958). In the PCA test, normal animals are injected intradermally (i.d.) with antibodies contained in serum obtained from actively sensitized animals. The animals are then challenged intravenously with antigen mixed with a dye such as Evans' Blue. The increased capillary permeability caused by the antigen-antibody reaction causes the dye to leak from the site of the antibody injection. The test animals are then asphyxiated and the intensity of the reaction determined by measuring the diameter and intensity of the blue coloration on the inner surface of the animals' skin.
The PCA test is a measure of the anti-allergic (especially anti-asthmatic) activity of a compound. Compounds which inhibit a positive PCA test induced by the rat immunochemical counterpart of human immunoglobulin E (IgE), or reagin, are considered to have anti-allergic activity (C. Mota, Ann. N.Y. Acad. Sci., 103, 264 1963). (Reagin is primarily immunoglobulin E [IgE] and is the principal immunoglobulin responsible for allergic asthma, anaphylaxis, hay fever, food sensitivities and certain manifestations of drug sensitivities, although recent evidence ascribes to the IgG class of antibodies a significant role in the mediation of allergic diseases). Such compounds when administered to a sensitized subject, human or animal, prior to the time when the subject comes into contact with antigens or substances to which it is allergic, will prevent the allergic reaction which would otherwise occur. They, therefore, provide a method for the prophylactic treatment of allergy or anaphylactic reactions of a reagin mediated nature.
To put it another way, such compounds block the release of mediators resulting from the antigen-antibody (allergic) reaction as illustrated in the PCA test using rat homocytotropic antibody--a known correlate of human reaginic antibody. Inhibition of reaginic antigen-antibody reactions in rats, the test animal of the PCA test, is regarded as representative of inhibition of human reaginic antigen-antibody reactions which occur during allergic episodes.
The ability of agents to interfere with PCA reactions is measured in male Charles River Wistar rats, 170-210 g. Reaginic antiserum, rich in IgE antibodies, is prepared according to Petillo et al., Int. Arch. Allergy, 44, 309 (1973). Hyperimmune antiserum rich in IgG antibodies to hen egg albumin is prepared according to Orange et al., J. Exptl. Med., 127, 767 (1968). Forty-eight hours prior to antigen challenge, the reaginic antiserum is injected intradermally (i.d.) into the shaved skin of a normal rat's back; 5 hours before challenge the hyperimmune antisera is similarly injected. At a third site 60 mcg. histamine dihydrochloride and 0.5 mcg. serotonin creatinine sulfate are injected i.d. just prior to antigen challenge as a check for antihistaminic, antiserotonin and unspecific types of blockage; the compounds of the instant invention or saline are then administered i.v. and immediately followed by the challenge of 5 mg. egg albumen and 2.5 mg. Evans' Blue dye in saline. In the case of oral administration Evans' Blue dye and egg albumin are given 5 minutes after administration of the drug. Thirty minutes later the animals are asphyxiated using chloroform and the skin of the back removed and reversed for observation. A score is assigned each injection site equal to the product of the diameter of the site in mm. and a grade of 0.1, 0.5, 1, 2, 3 or 4 proportional to intensity of dye coloration. The scores for a given injection site are summed for each group of five animals and compared to the saline treated controls. The difference is expressed as percent blockage due to the compound employed. […]

[3] = Plasma levels after repeated daily dosing; assay type: in vivo; conditions: after the eighth daily dose of III
Method: as §1

rats = experiment: Oral toleration, 10 days, rats; assay type: in vivo, rat; conditions: 10 days, 50, 150 and 300 mg/kg/day
Method: Rats were given III orally by gavage at doses of 50, 150 and 300 mg/kg/day for 10 days.

[4] = Oral absorption and plasma concentrations, rats; assay type: in vivo, rat
Method: as §1

[5] = system: ulcerogenic effects of aspirin; experiment: Protection against ulcerogenic effects of aspirin; assay type: in vivo; conditions: p.o.; aspirin 100 mg/kg p.o.
Method: Compound III also protects against the ulcerogenic effects of aspirin, 100 mg/kg p.o. where dose-related effects are seen over the dose range of 10 to 1000 μg/kg, p.o. with an ED50 of 100 μg/kg. Compound III is also active in a phenylbutazone gastric ulcer model where an oral ED50 of 200 μg/kg is observed. […] "Cytoprotective," a term coined recently to describe the antiulcer effects of prostaglandins that are independent of antisecretory activity, [Robert, Advances in Prostaglandin and Thromboxane Research 2, 507 (1976); Miller et al., Gut 20, 75 (1979); Robert et al., Gastroenterology 72, 1121 (1977).] aptly characterizes the effects of compound III.

point mutations = experiment: Ames test in vitro; assay type: cell-based
[6] = system: isolated guinea pig ileum (slow reacting substance of anaphylaxis); experiment: Isolated ileum spasm, slow reacting substance of anaphylaxis; conditions: 10^-8 to 10^-4 M
[7] = system: plasma histamine rise in rats passively sensitized with IgE-rich antiserum; experiment: Passive systemic anaphylaxis, plasma histamine rise; assay type: in vivo, rat
[8] = one hour after oral 50 to 300 mg/kg, 60 min

In the case of `O=C(Nc1nnn[nH]1)c1cnc2sc3c(n2c1=O)CCCC3` [Compound III, N-(5-Tetrazolyl)-1-oxo-1H-cyclohexenothiazolo[3,2-a]pyrimidine-2-carboxamide], the plasma concentration [1, 8] is reported as 9 to 26 µg/mL, the oral absorption ([1]; suspensions or capsules) is reported as “absorbed readily after oral administration” and the inhibition in vivo at 3 mg/kg ([2]; Rattus norvegicus, IgE, oral, 3 mg./kg., read-out: Oral Activity (% of Protection) in the PCA Test, IgE) is reported as 47%. The “oral activity” value ([2]; oral) was “excellent oral activity”, the “dose range for antiallergy effects” value ([2]; rat, in vivo) was 1 to 10 mg/kg and the “levels after the eighth daily dose relative to initial dose” value [3] was 2 to 4 times. The “pathological changes, gross and microscopic (liver, kidney, heart, lung)” value (rats; oral gavage) was “no resultant pathological changes”, the “clinical chemistry apart from serum glutamic-pyruvic transaminase” value (rats; oral) was “no changes in clinical chemistry were observed” and the plasma concentration [4, 8] was 3 to 7 µg/mL. The oral absorption ([4]; ratio of comparably effective oral and intravenous doses, PCA test) was “good oral absorption”, the “dose range of dose-related effects, aspirin ulcer” value [5] was 10 to 1000 µg/kg and the “point mutations in Ames test” value (point mutations) was “did not induce point mutations”. For the same molecule, the “antagonism of spasm of isolated guinea pig ileum” value [6] was “does not antagonize spasms”, the “potency relative to Intal, passive systemic anaphylaxis” value ([7]; i.v., vs Intal) was 13 times and the “passive systemic anaphylaxis” value ([7]; rat, in vivo) was “prevented”.
